Assays:
[1] = biological target: Rho-associated protein kinase 1 (Homo sapiens, UniProt Q13464); assay: Inhibition of recombinant human ROCK1 (17 to 535 residues) using […] as substrate incubated for 40 mins in presence of [gamma-33P]ATP and 10 uM ATP by radiometric scintillation counting analysis
[2] = Intrinsic clearance in human liver microsomes measured upto 45 mins in presence of NADPH by LC-MS analysis; assay type: ADME, Microsome; details: read-out: CLH
Activin receptor type-1B = Activin receptor type-1B (Homo sapiens, UniProt P36896); assay: Inhibition of human recombinant ALK4 (150 to end residues) using casein as substrate incubated for 40 mins in presence of [gamma-33P]ATP by radiometric scintillation counting analysis
[3] = biological target: Tyrosine-protein kinase BTK (Homo sapiens, UniProt Q06187, R28H); assay: Inhibition of recombinant full length human BTK R28H mutant using KVEKIGEGTYGVV substrate incubated for 40 mins in presence of [gamma-33ATP] by radiometric scintillation counting analysis
[4] = biological target: Serine/threonine-protein kinase B-raf (Homo sapiens, UniProt P15056, V600E); assay: Inhibition of recombinant full length human B-Raf V599E mutant (416 to end residues) using myelin basic protein as substrate incubated for 40 mins in presence of [gamma-33ATP] by radiometric scintillation counting analysis
[5] = biological target: Calcium/calmodulin-dependent protein kinase type 1B (Homo sapiens, UniProt Q6P2M8); assay: Inhibition of recombinant full length human CaMK1beta using KKLRRTLSFAEP as substrate incubated for 40 mins in presence of [gamma-33ATP] by radiometric scintillation counting analysis
[6] = biological target: Calcium/calmodulin-dependent protein kinase type II subunit alpha (Homo sapiens, UniProt Q9UQM7); assay: Inhibition of recombinant full length human CaMK2alpha using KKLNRTLSFAEPG as substrate incubated for 40 mins in presence of [gamma-33ATP] by radiometric scintillation counting analysis
Sequence of Calcium/calmodulin-dependent protein kinase type II subunit alpha (Q9UQM7 whole entry): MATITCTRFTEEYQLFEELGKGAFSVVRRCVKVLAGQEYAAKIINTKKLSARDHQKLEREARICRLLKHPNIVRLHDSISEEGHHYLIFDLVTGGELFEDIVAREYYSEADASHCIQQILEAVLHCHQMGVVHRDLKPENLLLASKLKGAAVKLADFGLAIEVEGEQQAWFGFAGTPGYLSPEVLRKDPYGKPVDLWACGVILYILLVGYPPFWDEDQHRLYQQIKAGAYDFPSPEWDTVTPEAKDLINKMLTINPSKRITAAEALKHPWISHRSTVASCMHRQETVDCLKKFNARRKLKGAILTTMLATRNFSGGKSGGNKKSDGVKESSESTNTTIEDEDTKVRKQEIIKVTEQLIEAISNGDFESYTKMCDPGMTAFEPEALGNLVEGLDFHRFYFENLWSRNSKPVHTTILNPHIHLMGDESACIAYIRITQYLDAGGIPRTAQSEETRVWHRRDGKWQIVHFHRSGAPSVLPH

[7] = biological target: Cyclin-dependent kinase-like 2 (Homo sapiens, UniProt Q92772); assay: Inhibition of recombinant full length human CDKL2 in presence of 10 uM ATP by radiometric scintillation counting analysis
[8] = biological target: Mast/stem cell growth factor receptor Kit (Homo sapiens, UniProt P10721, D816H); assay: Inhibition of recombinant human C-Kit D816H mutant (544 to end residues) using poly(Glu, Tyr) 4:1 as substrate incubated 40 mins in presence of [gamma-33ATP] by radiometric scintillation counting analysis
[9] = biological target: Serine/threonine-protein kinase 17B (Homo sapiens, UniProt O94768); assay: Inhibition of recombinant full length human DRAK2 using KKRPQRRYSNVF as substrate at 120 mins in presence of [gamma-33ATP] by radiometric scintillation counting analysis
[10] = biological target: Dual specificity tyrosine-phosphorylation-regulated kinase 1A (Homo sapiens, UniProt Q13627); assay: Inhibition of recombinant full length human DYRK1A using RRRFRPASPLRGPP as substrate after 40 mins in presence of [gamma-33ATP] by radiometric scintillation counting analysis
[11] = biological target: Protein kinase C beta type (Homo sapiens, UniProt P05771); assay: Inhibition of recombinant human PKCbeta1 (2 to end residues) using histone H1 as substrate incubated for 40 mins in presence of [gamma33P]ATP by radiometric scintillation counting analysis
[12] = biological target: Ribosomal protein S6 kinase beta-1 (Homo sapiens, UniProt P23443, T412E); assay: Inhibition of recombinant human p70S6K T412E mutant (1 to 421 residues) using KKRNRTLTV as substrate measured after 40 mins in presence of [gamma33P]ATP by radiometric scintillation counting analysis
Sequence of Ribosomal protein S6 kinase beta-1 (P23443 whole entry T412E, the tested form may be a part, canonical isoform): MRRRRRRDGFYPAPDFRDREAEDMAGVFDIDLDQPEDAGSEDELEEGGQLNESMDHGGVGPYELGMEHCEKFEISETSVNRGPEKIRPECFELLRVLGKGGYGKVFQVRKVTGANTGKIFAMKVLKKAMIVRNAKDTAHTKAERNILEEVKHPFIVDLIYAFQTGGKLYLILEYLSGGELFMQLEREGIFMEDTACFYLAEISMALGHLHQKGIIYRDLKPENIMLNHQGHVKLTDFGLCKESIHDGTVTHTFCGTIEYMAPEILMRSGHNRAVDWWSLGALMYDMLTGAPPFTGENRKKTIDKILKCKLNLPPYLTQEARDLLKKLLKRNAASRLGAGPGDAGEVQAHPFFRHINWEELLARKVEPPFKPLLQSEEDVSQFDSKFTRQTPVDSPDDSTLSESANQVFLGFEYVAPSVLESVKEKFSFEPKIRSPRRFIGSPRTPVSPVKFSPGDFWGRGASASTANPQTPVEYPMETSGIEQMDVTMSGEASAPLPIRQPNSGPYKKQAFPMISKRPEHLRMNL

[13] = biological target: Phosphorylase b kinase gamma catalytic chain, skeletal muscle/heart isoform (Homo sapiens, UniProt Q16816); assay: Inhibition of recombinant full-length human PhKgamma1 using KKLNRTLSFAEPG as substrate incubated for 40 mins in presence of [gamma33P]ATP by radiometric scintillation counting analysis
[14] = biological target: Receptor tyrosine-protein kinase erbB-2 (Homo sapiens, UniProt P04626, G778D); assay: Inhibition of recombinant human ERBB2 G778D (676 to end residues) using poly(Glu, Tyr) 4:1 as substrate after 40 mins in presence of [gamma-33ATP] by radiometric scintillation counting analysis
Sequence of Receptor tyrosine-protein kinase erbB-2 (P04626 23-1255 G778D limits assumed): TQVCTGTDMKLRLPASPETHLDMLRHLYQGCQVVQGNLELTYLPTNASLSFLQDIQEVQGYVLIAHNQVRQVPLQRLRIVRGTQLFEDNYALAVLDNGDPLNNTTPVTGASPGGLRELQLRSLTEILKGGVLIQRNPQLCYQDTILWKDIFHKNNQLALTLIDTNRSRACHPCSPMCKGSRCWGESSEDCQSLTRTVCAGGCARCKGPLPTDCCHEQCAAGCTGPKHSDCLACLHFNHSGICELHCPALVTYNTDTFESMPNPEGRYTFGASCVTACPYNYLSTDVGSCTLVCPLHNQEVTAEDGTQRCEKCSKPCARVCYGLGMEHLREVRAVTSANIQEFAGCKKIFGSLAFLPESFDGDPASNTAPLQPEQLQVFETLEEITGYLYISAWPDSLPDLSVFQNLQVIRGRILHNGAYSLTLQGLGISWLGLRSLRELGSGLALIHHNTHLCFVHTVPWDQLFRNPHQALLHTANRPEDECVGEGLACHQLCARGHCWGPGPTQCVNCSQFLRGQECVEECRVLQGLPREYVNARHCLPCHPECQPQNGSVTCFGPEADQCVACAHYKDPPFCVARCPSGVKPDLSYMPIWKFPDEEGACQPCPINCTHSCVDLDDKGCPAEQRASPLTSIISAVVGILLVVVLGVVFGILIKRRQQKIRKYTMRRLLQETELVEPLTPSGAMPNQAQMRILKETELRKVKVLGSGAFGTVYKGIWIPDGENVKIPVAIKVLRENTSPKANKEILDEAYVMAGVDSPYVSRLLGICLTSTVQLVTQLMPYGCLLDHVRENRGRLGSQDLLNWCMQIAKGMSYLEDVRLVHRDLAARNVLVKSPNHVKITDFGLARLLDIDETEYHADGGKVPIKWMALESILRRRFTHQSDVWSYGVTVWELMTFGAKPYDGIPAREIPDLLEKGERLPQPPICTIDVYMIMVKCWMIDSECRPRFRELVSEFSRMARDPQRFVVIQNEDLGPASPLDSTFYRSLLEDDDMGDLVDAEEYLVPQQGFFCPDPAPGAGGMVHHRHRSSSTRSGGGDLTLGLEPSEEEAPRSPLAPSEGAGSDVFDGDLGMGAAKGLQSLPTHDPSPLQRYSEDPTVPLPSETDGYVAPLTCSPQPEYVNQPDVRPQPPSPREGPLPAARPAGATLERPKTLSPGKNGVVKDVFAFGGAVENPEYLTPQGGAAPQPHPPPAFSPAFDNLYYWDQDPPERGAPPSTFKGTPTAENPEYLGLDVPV

[15] = biological target: Fibroblast growth factor receptor 1 (Homo sapiens, UniProt P11362); assay: Inhibition of recombinant human FGFR1 (456 to 765 residues) using KKKSPGEYVNIEF as substrate after 40 mins in presence of [gamma-33ATP] by radiometric scintillation counting analysis
Sequence of Fibroblast growth factor receptor 1 (Homo sapiens, UniProt P11362) (P11362 whole entry, the tested form may be a part): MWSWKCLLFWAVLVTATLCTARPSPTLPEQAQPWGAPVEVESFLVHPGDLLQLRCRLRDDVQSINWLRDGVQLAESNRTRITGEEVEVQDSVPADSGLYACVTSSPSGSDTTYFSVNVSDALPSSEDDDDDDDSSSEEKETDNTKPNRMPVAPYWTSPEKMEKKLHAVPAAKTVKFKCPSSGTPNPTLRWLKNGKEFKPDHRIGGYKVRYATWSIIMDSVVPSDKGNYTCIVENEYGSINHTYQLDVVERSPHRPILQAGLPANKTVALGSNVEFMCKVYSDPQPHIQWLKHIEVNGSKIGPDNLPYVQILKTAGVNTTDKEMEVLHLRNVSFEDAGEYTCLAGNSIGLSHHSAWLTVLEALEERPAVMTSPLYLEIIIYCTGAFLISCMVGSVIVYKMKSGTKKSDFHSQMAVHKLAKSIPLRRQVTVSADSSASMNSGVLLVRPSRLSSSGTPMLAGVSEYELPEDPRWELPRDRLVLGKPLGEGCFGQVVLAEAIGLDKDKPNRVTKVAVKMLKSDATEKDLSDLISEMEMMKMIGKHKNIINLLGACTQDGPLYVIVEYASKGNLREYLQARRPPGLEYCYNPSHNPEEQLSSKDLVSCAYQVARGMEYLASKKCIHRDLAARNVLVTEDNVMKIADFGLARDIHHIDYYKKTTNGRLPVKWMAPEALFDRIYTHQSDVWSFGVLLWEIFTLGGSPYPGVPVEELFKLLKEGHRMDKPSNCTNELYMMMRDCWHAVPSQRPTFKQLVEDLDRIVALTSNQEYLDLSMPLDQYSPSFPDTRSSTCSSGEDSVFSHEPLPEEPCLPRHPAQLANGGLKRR

[16] = biological target: Fibroblast growth factor receptor 1 (Homo sapiens, UniProt P11362, V561M); assay: Inhibition of recombinant human FGFR1 V561M mutant (456 to 765 residues) using GGEEEEYFELVKK as substrate after 40 mins in presence of [gamma-33ATP] by radiometric scintillation counting analysis
[17] = biological target: Tyrosine-protein kinase Fgr (Homo sapiens, UniProt P09769); assay: Inhibition of recombinant human FGR (2 to end residues) using poly(Glu, Tyr) 4:1 as substrate after 40 mins in presence of [gamma-33ATP] by radiometric scintillation counting analysis
[18] = biological target: Homeodomain-interacting protein kinase 4 (Homo sapiens, UniProt Q8NE63); assay: Inhibition of human recombinant full length HIPK4 using RRRFRPASPLRGP as substrate after 40 mins by [gamma-33ATP] radiometric assay
[19] = biological target: Interleukin-1 receptor-associated kinase 1 (Homo sapiens, UniProt P51617); assay: Inhibition of human recombinant IRAK1 (194 to end residues) using myelin basic protein as substrate after 40 mins by [gamma-33ATP] by radiometric scintillation counting analysis
[20] = biological target: Proto-oncogene tyrosine-protein kinase receptor Ret (Homo sapiens, UniProt P07949); assay: Inhibition of recombinant human Ret (658 to end residues) using KKKSPGEYVNIEF as substrate incubated for 40 mins in presence of [gamma33P]ATP by radiometric scintillation counting analysis
TGF-beta receptor type-2 = TGF-beta receptor type-2 (Homo sapiens, UniProt P37173); assay: Inhibition of recombinant human TGFBR2 (188 to end residues) using MBP as substrate incubated for 120 mins in presence of [gamma33P]ATP by radiometric scintillation counting analysis
Sequence of TGF-beta receptor type-2 (P37173 whole entry): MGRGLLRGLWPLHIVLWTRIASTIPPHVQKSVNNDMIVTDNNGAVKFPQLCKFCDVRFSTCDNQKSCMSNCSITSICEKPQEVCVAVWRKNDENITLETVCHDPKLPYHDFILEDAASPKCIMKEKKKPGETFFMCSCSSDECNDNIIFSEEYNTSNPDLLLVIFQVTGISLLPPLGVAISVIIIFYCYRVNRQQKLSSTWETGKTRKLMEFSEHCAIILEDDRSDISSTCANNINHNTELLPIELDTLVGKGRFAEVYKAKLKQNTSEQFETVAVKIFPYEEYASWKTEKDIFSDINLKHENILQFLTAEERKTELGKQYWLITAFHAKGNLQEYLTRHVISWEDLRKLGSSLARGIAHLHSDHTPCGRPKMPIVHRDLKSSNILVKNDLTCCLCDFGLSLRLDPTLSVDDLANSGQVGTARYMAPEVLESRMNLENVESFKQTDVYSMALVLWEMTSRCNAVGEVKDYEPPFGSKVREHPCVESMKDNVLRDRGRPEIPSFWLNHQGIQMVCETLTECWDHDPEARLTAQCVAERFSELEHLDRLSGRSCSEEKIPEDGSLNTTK

[21] = Inhibition of recombinant human TIE2 Q939H/Q940H/ R849W triple mutant (771 to end residues) using EFPIYDFLPAKKK as substrate incubated for 40 mins in presence of [gamma33P]ATP by radiometric scintillation counting analysis
[22] = biological target: Serine/threonine-protein kinase tousled-like 1 (Homo sapiens, UniProt Q9UKI8); assay: Inhibition of recombinant full-length human TLK1 using casein as substrate incubated for 40 mins in presence of [gamma33P]ATP by radiometric scintillation counting analysis
[23] = biological target: Non-receptor tyrosine-protein kinase TYK2 (Homo sapiens, UniProt P29597); assay: Inhibition of recombinant human TYK2 (875 to end residues) using GGMEDIYFEFMGG as substrate incubated for 40 mins in presence of [gamma33P]ATP by radiometric scintillation counting analysis

Sequence of Rho-associated protein kinase 1 (Q13464 whole entry, the tested form may be a part): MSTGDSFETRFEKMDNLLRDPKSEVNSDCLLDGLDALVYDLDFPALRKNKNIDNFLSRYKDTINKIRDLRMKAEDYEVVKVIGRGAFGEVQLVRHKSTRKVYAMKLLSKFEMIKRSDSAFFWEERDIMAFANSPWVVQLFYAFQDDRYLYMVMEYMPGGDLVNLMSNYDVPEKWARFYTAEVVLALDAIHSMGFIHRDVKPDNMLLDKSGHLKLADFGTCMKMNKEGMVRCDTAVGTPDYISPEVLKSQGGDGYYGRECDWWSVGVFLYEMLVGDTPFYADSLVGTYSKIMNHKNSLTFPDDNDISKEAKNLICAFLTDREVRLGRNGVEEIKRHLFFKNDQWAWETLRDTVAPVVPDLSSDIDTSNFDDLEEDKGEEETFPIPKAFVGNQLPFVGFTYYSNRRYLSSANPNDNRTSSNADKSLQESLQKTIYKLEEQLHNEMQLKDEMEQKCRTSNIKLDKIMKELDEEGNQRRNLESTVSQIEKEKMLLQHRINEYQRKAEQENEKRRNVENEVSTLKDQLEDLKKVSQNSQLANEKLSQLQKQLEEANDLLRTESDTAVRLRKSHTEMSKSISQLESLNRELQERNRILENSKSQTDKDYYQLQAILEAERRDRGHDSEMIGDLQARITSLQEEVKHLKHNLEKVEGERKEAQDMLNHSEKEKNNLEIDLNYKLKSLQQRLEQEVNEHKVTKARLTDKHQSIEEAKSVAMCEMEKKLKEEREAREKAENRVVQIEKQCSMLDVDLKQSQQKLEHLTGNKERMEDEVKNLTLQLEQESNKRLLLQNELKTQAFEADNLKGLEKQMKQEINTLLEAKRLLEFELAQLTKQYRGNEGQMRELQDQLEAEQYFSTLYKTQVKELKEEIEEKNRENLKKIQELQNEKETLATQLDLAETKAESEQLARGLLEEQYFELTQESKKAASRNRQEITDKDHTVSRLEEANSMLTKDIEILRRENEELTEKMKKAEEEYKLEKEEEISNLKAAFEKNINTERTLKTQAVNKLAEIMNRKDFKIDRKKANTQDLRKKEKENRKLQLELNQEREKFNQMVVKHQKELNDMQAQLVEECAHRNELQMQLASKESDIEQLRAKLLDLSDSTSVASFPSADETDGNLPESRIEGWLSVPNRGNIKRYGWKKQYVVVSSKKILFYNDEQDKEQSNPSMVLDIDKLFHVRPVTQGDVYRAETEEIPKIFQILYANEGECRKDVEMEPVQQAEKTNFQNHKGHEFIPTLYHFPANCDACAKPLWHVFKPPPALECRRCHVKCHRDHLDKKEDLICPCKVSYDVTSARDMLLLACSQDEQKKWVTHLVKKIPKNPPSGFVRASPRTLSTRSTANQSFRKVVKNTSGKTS

**Q.** For `CN(C)c1ccc(C(=O)Nc2cccc(NC(=O)COc3ccc4c(=O)ccoc4c3)c2)cc1`, which IC50 [1] is on record?
**A.** 0.014 µM

**Q.** And the CLint scaled [2]?
**A.** 216 mL/min/kg

**Q.** And the IC50 (Activin receptor type-1B)?
**A.** > 10 µM

**Q.** What about the IC50 [3] of the same molecule?
**A.** > 10 µM

**Q.** And the IC50 [4]?
**A.** > 10 µM

**Q.** And the IC50 [5]?
**A.** > 10 µM

**Q.** And the IC50 [6]?
**A.** > 10 µM

**Q.** And the IC50 [7]?
**A.** > 10 µM

**Q.** What about the IC50 [8] of the same molecule?
**A.** > 10 µM

**Q.** And the IC50 [9]?
**A.** > 10 µM

**Q.** What about the IC50 [10] of the same molecule?
**A.** > 10 µM

**Q.** And the IC50 [11]?
**A.** > 10 µM

**Q.** What about the IC50 [12] of the same molecule?
**A.** > 10 µM

**Q.** What about the IC50 [13] of the same molecule?
**A.** > 10 µM

**Q.** And the IC50 [14]?
**A.** > 10 µM

**Q.** What about the IC50 [15] of the same molecule?
**A.** > 10 µM

**Q.** What about the IC50 [16] of the same molecule?
**A.** > 10 µM

**Q.** And the IC50 [17]?
**A.** > 10 µM

**Q.** What about the IC50 [18] of the same molecule?
**A.** > 10 µM

**Q.** What about the IC50 [19] of the same molecule?
**A.** > 10 µM

**Q.** And the IC50 [20]?
**A.** > 10 µM

**Q.** What about the IC50 (TGF-beta receptor type-2) of the same molecule?
**A.** > 10 µM

**Q.** And the IC50 [21]?
**A.** > 10 µM

**Q.** What about the IC50 [22] of the same molecule?
**A.** > 10 µM

**Q.** What about the IC50 [23] of the same molecule?
**A.** > 10 µM

— ChEMBL document CHEMBL4376834, “Discovery of 4H-Chromen-4-one Derivatives as a New Class of Selective Rho Kinase (ROCK) Inhibitors, which Showed Potent Activity in ex Vivo Diabetic Retinopathy Models” (J Med Chem, 2019)
